Test system: 4T1 tumor (highly metastatic, syngeneic mammary cancer cell line)
Experiment: Survival of tumor-bearing mice after cyclophosphamide, intratumoral nanoparticles and cryoablation or resection
Format: in vivo, BALB/c mice
Conditions: Cy 200 mg/kg intraperitoneally day 14 plus cryoablation day 16, compared with Cy plus surgical resection of the subcutaneous nodule; FIG. 3A
Description: The particles are suspended with a pipette for about one minute. […] The particles in PBS should not be used if kept for more than 12 hours. The particles are lightly sonicated with a bath sonicator, or vortexed to make an even suspension. The particles should not sit idly in the syringe as they will settle and then clog the syringe. Ideally, the injection should be made within 10-30 seconds after drawing the well-mixed nanoparticle suspension into the syringe. For mice with a tumor of 5-8 mm diameter, 100 mg of particles is injected directly into the tumor in a volume of 0.1 ml.
Groups of 10 BALB/c mice each received a subcutaneous inoculation of 10^4 cells of the highly metastatic, syngeneic mammary cancer cell line on the flank.

O=P1(N(CCCl)CCCl)NCCCO1 (stereo not shown) [cyclophosphamide]
survival: did not survive significantly longer

From patent publication US20130302409A1, “METHODS AND COMPOSITIONS FOR CANCER IMMUNOTHERAPY” (priority 2010, published 2013)
